Common to all, as to test: growth of human tumour cells (NCI), 48 h
Test [1] concerns COLO 205 colon.
Test [2] relates to DU-145 prostate.
The test system of test [3] is HCC-2998 colon.
Test [4] deals with HCT-116 colon.
For test [5], the system named is HL-60(TB) leukemia.
Test [6] relates to HOP-62 NSCLC.
The test system of test [7] is LOX IMVI melanoma.
The subject of test [8] is MCF7 breast.
In test [9] the test system is NCI-H23 lung.
In test [10] the test system is SK-MEL-2 melanoma.

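Cultured in 96-well plates, cells were exposed to test compound for 48 hours across five concentrations. The concentration for 50% growth inhibition is given as GI50. TGI marks complete inhibition of growth.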

In the case of `COc1ccc2cc(-c3ccoc(=O)c3-c3cc(OC)c(OC)c(OC)c3)ccc2c1`, the GI50 in [1] was 44.9 nM; in [2] it was 188 nM; in [3] it was 74.4 nM; in test [4] it was 44 nM; in [5], 35.3 nM; in test [6] it was 270 nM. The GI50 was 1150 nM in [7], 32.2 nM in [8], 141 nM in test [9] and 75.2 nM in test [10]. The TGI is 212 nM in [1]; greater than 100000 nM in [2]; 426 nM in test [3]; 793 nM in [5]; greater than 100000 nM in test [6]; greater than 100000 nM in test [7]. Also, the figures for the TGI in test [8] and in [10] were greater than 57500 nM and greater than 100000 nM, respectively.

Turning to `O=C1C=C(Br)c2c(-c3ccccc3)oc3cccc1c23`, the TGI was greater than 100000 nM in test [1]; greater than 100000 nM in [2]; greater than 100000 nM in test [3]; greater than 100000 nM in [4]; greater than 63200 nM in [5]; greater than 100000 nM in test [6]. Moreover, the TGI in test [7] was greater than 65400 nM; in test [8], greater than 100000 nM; in [9], greater than 100000 nM; in test [10], greater than 100000 nM.

Take `COc1cccc(C=Nc2cc(C)ccn2)c1O.COc1cccc(C=Nc2cc(C)ccn2)c1O.[Cu]`: the GI50 in [1] is 18900 nM; in test [2], 19300 nM; in test [3], 16200 nM; in test [4], 14100 nM; in [5], 1750 nM; in test [6], 22200 nM. The GI50 in [7] is 8530 nM; in [8] it was 19700 nM; in test [9], 19000 nM; in [10] it was 21100 nM. Also, the TGI was 42800 nM in [1]; 41600 nM in test [2]; 37900 nM in test [3]; 32300 nM in [4]; 14200 nM in [5]; 63700 nM in test [6]. In addition, the TGI in [7] amounted to 30900 nM; in test [8] it was 62800 nM; in test [9], 49400 nM; in test [10] it was 53200 nM.

With `CC(=O)NC1=C(OS(=O)(=O)c2ccc(C)cc2)CN(C)C1=O`, the TGI was 25300 nM in [1]; 16700 nM in test [2]; 11500 nM in [3]; 12000 nM in test [4]; 7090 nM in test [5]; 11900 nM in [6]. Also, the TGI came to 17500 nM in test [7], 11700 nM in test [8], 15300 nM in test [9] and 9630 nM in [10].

Turning to `O=C(c1ccccc1)C(CN1CCOCC1)c1ccccc1` (stereo not drawn), the GI50 in test [1] is 1760 nM; in [2] it was 1160 nM; in test [3] it was 4360 nM; in test [4], 609 nM; in [5] it was 1950 nM; in test [6] it was 6500 nM. Moreover, the GI50 is 1320 nM in test [7], 1250 nM in [8], 2790 nM in test [9] and 1670 nM in test [10]. Moreover, the TGI in test [1] amounted to 3320 nM; in test [2] it was 2440 nM; in test [3], 15600 nM; in [4], 2080 nM; in [5] it was 5570 nM; in [6] it was 19700 nM. Besides, the TGI in test [7] was determined as 3190 nM; in [8] it was 2660 nM; in test [9], 12300 nM; in [10] it was 3390 nM.

Consider `COc1cc2nc(N3CCCC3)nc(NCC3CCCCC3)c2cc1OC`, for which the GI50 in [1] was 223 nM; in test [2], 1510 nM; in test [3] it was 444 nM; in [4], 805 nM; in test [5], 505 nM; in test [6] it was 1560 nM. Moreover, the GI50 in test [7] was 281 nM; in [8] it was 515 nM; in [9], 1570 nM; in test [10], 1860 nM. In addition, the TGI in [1] turned out to be 499 nM; in test [2], 2920 nM; in test [3], 1620 nM; in test [4], 2210 nM; in test [5], 2210 nM; in [6] it was 3200 nM. In addition, the TGI in test [7] came to 793 nM; in [8], 2030 nM; in test [9], 3070 nM; in test [10] it was 3510 nM.

As to `C=CC(=O)N(C)[C@H]1C[C@H]2OC(C)(C1OC)n1c3ccccc3c3c4c(c5c6ccccc6n2c5c31)C(=O)NC4` (stereo partly drawn), the GI50 in test [1] was 83.1 nM; in test [2], 124 nM; in test [3], 575 nM; in test [4], 68.1 nM; in test [5] it was 129 nM; in test [6] it was 19.3 nM. The GI50 was 82.3 nM in test [7], 123 nM in [8], 158 nM in test [9] and 193 nM in test [10]. Further, the TGI in test [1] worked out at 253 nM; in [2] it was 18700 nM; in [3] it was 1460 nM; in test [4] it was 672 nM; in test [5], 1590 nM; in test [6] it was 176 nM. Further, the TGI was 670 nM in test [7], greater than 50000 nM in [8], 2080 nM in test [9] and 1490 nM in [10].

For the compound `Cc1ccc(-c2cc(-c3ccc(C)cc3)nc(NCCNc3ccnc4cc(Cl)ccc34)n2)cc1`, the GI50 was 1690 nM in test [1]; 1810 nM in test [2]; 1760 nM in test [3]; 1600 nM in [4]; 2000 nM in test [5]; 1890 nM in [6]. Also, the GI50 in [7] is 1830 nM; in [8], 1750 nM; in test [9], 1910 nM; in test [10], 1900 nM. Moreover, the TGI in [1] was determined as 3480 nM; in [2] it was 3310 nM; in test [3] it was 3280 nM; in [4] it was 3440 nM; in test [5] it was 4150 nM; in [6], 3800 nM. The TGI in test [7] turned out to be 3710 nM; in [8], 3640 nM; in test [9] it was 3850 nM; in test [10], 3630 nM.

The record behind these values is PubChem BioAssay (NCI).
